Laboratory results reported in US20240207157A1, “ORAL CARE AGENT” (priority 2021, published 2024).

How the values were obtained:
[1] = tested on: human epidermal HaCaT keratinocytes; assay: colorimetric MTT viability study on HaCaT keratinocytes
Protocol: To investigate the effect of caffeine on the biological functions of human epidermal HaCaT keratinocytes, cell experiments were performed on human epidermal HaCaT keratinocytes, wherein the following studies were carried out: • 1.
The initial cell count was 5000 cells/well in 100 μl culture medium.
The culture medium was HaCaT medium (DMEM with the addition of 10% FBS, 1% penicillin-streptomycin, 0.5% fungizone).
The treatment groups were as follows: • 1. Control group (CTRL) • 2. 0.00005% caffeine • 3. 0.0001% caffeine • 4. 0.0005% caffeine • 5. 0.001% caffeine • 6. 0.005% caffeine
The trial durations were 24, 48 and 72 hours.
The study took the form of a colorimetric MTT study.

[2] = tested on: human epidermal HaCaT keratinocytes; assay: fluorometric CyQUANT cell proliferation study (DNA content); assay type: cell-based; conditions: 0.00005, 0.0005, 0.005% caffeine; 24, 48 or 72 hours; best effects after 72 hours
Protocol: To investigate the effect of caffeine on cell proliferation of human epidermal HaCaT keratinocytes, human HaCaT keratinocytes were subjected to a CyQUANT viability assay, wherein the following series of experiments were performed: • 1. P22 Experiment 1 (biological assay 1) • 2. P24 Experiment 2 (biological assay 2).
The trial durations were 24, 48 or 72 hours.
The study was carried out by fluorometric CyQUANT study, wherein the DNA content was measured, reflecting cell proliferation.

VEGF [3] = assay: Q-PCR, VEGF mRNA expression in HaCaT cell lysates; assay type: cell-based, human
Protocol: (§1) For Q-PCR: Determination of VEGF, HGF and EGF mRNA expression in cell lysates • 2. For ELISA: Determination of VEGF, HGF and EGF protein synthesis/secretion into the culture medium
(§2) The initial cell count was • 1. for Q-PCR: 140,000 cells/well in 1500 μl culture medium • 2. for ELISA: 140,000 cells/well in 1.500 μl culture medium.
(§3) The trial duration for • 1. Q-PCR was 24 hours (single treatment at time 0 h) • 2. ELISA was 48 hours (double treatment at time 0 h and 24 h without changing the medium).
(§4) The study was carried out • 1. for Q-PCR by determining VEGF mRNA expression in cell lysates • 2. for ELISA by determining VEGF protein synthesis/secretion in the culture medium.

TGFβ1 = assay: Q-PCR, TGFβ1 mRNA expression in HaCaT cells; assay type: cell-based, human
VEGF [4] = assay: ELISA, VEGF protein synthesis/secretion into the culture medium of HaCaT cells; assay type: cell-based, human; conditions: 48 hours
Protocol: as §1, §2, §3, §4

[5] = humans, after drinking four cups of coffee; cited from earlier work
TGFβ2 = assay: Q-PCR, TGFβ2 mRNA expression in HaCaT cells; assay type: cell-based, human
GM-CSF [6] = assay: ELISA, GM-CSF experiments in HaCaT cells; assay type: cell-based, human; conditions: 48 h
Protocol: as §1, §2, §3

GM-CSF [7] = assay: Q-PCR, GM-CSF experiments in HaCaT cells; assay type: cell-based, human; conditions: all tested caffeine concentrations, 24 h, Experiments 1 and 2
Protocol: as §1, §2, §3

[8] = 0.0005% caffeine, both experiments

Cn1c(=O)c2c(ncn2C)n(C)c1=O [caffeine]
cytotoxicity ([1]; 0.00005-0.005% caffeine, up to 72 hours): none of the concentrations tested showed cytotoxicity | number of viable cells ([1]; certain concentrations of caffeine, MTT): increased the number of viable cells | cell proliferation [2]: appears to promote cell proliferation | mRNA expression of VEGF compared to the control group (VEGF [3]; all caffeine concentrations, 24 hours treatment, Experiments 1 and 2): appear to increase mRNA expression of VEGF | synthesis and production/secretion of VEGF (VEGF [3]; certain concentrations of caffeine, Q-PCR and ELISA taken together): increase the synthesis and production/secretion of VEGF | mRNA expression of TGFβ1 (TGFβ1; all tested caffeine concentrations, 24 h, Experiments 1 and 2): None of the tested caffeine concentrations changed the mRNA expression of TGFβ1 | synthesis/production/secretion of TGFβ1 (TGFβ1; taken together, Q-PCR and ELISA): does not alter | VEGF protein production/secretion compared to the control group (VEGF [4]; [8]): increases VEGF protein production/secretion | VEGF protein production/secretion compared to the control group (VEGF [4]; 0.005% caffeine, Experiment 2): also showed an effect | caffeine concentration in the blood serum [5]: 20 to 50 µmol/L | total amount corresponding to the serum concentration [5]: 15-35 milligrams | mRNA expression of TGFβ2 (TGFβ2; certain caffeine concentrations, 24 h, Experiment 2): apparently increase mRNA expression of TGFβ2 | synthesis/production/secretion of TGFβ2 (TGFβ2; taken together, contradictory results in the two Q-PCR experiments): most likely does not alter | VEGF protein production/secretion compared to the control group (experiments regarding GM-CSF) (GM-CSF [6]; 0j.005% caffeine, Experiment 2): also showed an effect | VEGF protein production/secretion compared to the control group (experiments regarding GM-CSF) (GM-CSF [6]; [8]): increased VEGF protein production/secretion | mRNA expression of VEGF compared to the control group (experiments regarding GM-CSF) (GM-CSF [7]): apparently increased the mRNA expression of VEGF
